Source: patent US20210153516A1, “COMPOSITION AND METHOD OF TREATING PLANTS AND PLANT PARTS WITH VOLATILE SPOILAGE ORGANISM CONTROLLING ACTIVES” (AGROFRESH INC., priority 2019, published 2021)

Tests used:
B. cinerea [1] = assay: B. cinerea infection assessment for blueberries after thermal fogging (Example 4); assay type: in vivo, Botrytis cinerea
Experimental: (§1) The experiment was conducted by 1) setting up a 4.3 m^3 rectangular plastic tent, 2) placing blueberries in open clamshells in the tent, 3) preparing a foggable formulation by dissolving volatile compound into a solvent mixture containing 50% w/w propylene glycol, 47.8% w/w isopropyl alcohol, 2% w/w sorbitan mono-oleate, and 0.2% of citric acid to achieve about 10% w/w volatile compound, 4) inoculating the blueberries before treatment, 5) applying the formulation through a thermal fogger with set temperature at 200° C. and flow rate of about 70 ml/min, and target use rate of 10 mg active ingredient per kg of blueberries, and 6) storing the blueberries under refrigerated condition of about 4° C. after treatment, and at room temperature to incubate for observation of disease infections.
B. cinerea infection was assessed at 13, 16, and 24 days incubation time under room temperature shelf life conditions for both untreated blueberry in isolation, untreated blueberry placed adjacent to the treated blueberry six days after the treatment, and the treated blueberries.

B. cinerea [2] = assay: B. cinerea infection assessment for strawberries after dipping treatment; assay type: in vivo, Botrytis cinerea
Experimental: The experiment was conducted by 1) preparing a dipping treatment solution by dissolving volatile compound into 20% v/v isopropanol water solution to achieve 10 ppm concentration, 2) pre-inoculate all the strawberries before treatment, 3) dipping strawberries in the prepared solution for 30 seconds, 4) storing the strawberries under refrigerated conditions and at room temperature to incubate for disease observations. B. cinerea infection was assessed at 3 and 5 days incubation time for both untreated strawberries in isolation and untreated strawberries placed adjacent to the treated strawberries.

[3] = tested on: Penicillium digitatum (Green mold) and Penicillium italicum (Blue mold); assay: Green mold and Blue mold infection assessment for mandarins after spray treatment; assay type: in vivo; settings: equally mixed mandarins of untreated and treated (spray 60 ml treatment solution per box); 10 days incubation at room temperature
Experimental: The experiment was conducted by 1) preparing a spray treatment solution by diluting […] concentrated formulation containing 10% w/w volatile compound, 45% w/w propylene glycol, 43.02% w/w isopropanol, 1.8% w/w sorbitan mono-oleate, 0.18% w/w citric acid into 1 L water, 2) spraying a box of mandarins with the use rate of 60 ml treatment solution per box, 3) after air drying of the mandarins, preparing a box of mandarins containing 50% untreated mandarins and 50% treated mandarins, 4) storing the mandarins under 3-5° C. refrigerated conditions for 7 days, and then storing at room temperature with high humidity to incubate for disease observations. Penicillium Digitatum (Green mold) and Penicillium italicum (Blue mold) infection incidence of the mandarins was assessed at 10 days incubation time under room temperature shelf life conditions for both untreated mandarins in isolation and equally mixed untreated and treated mandarins to simulate uneven spray treatment applications.

[4] = tested on: Penicillium digitatum (Green mold) and Penicillium italicum (Blue mold); assay: Green mold and Blue mold infection assessment for mandarins after dipping treatment; assay type: in vivo; settings: equally mixed mandarins of untreated and treated (dip about 60 seconds); 10 days incubation at room temperature
Experimental: The experiment was conducted by 1) preparing a dipping treatment solution by diluting 360 ml concentrated formulation containing 10% w/w volatile compound, 45% w/w propylene glycol, 43.02% w/w isopropanol, 1.8% w/w sorbitan mono-oleate, 0.18% w/w citric acid into 60 L water, 2) dipping a box of mandarins into the treatment solution bath for about 60 seconds, 3) after air drying of the mandarins, preparing a box of mandarins containing 50% untreated mandarins and 50% treated mandarins, 4) storing the mandarins under 3-5° C. refrigerated conditions for 7 days, and then storing at room temperature with high humidity to incubate for disease observations. Penicillium digitatum (Green mold) and Penicillium italicum (Blue mold) infection incidence of the mandarins was assessed at 10 days incubation time under room temperature shelf life conditions for both untreated mandarins in isolation and equally mixed untreated and treated mandarins to simulate uneven drench or dip treatment applications.

[5] = tested on: B. cinerea (Botrytis cinerea or Gray mold); assay: B. cinerea infection assessment for blueberries after thermal fogging (Example 3); assay type: in vivo; settings: untreated blueberries placed adjacent to treated blueberries one day after treatment, 10 mg active ingredient per kg
Experimental: as §1
B. cinerea (Botrytis cinerea or Gray mold) infection was assessed at 4 and 13 days incubation time for both untreated blueberries in isolation and untreated blueberries placed adjacent to the treated blueberries one day after the treatment.

[6] = treated blueberries, thermal fogging 10 mg active ingredient per kg, 13 days incubation
[7] = treated blueberries, thermal fogging 10 mg active ingredient per kg, 16 days incubation
[8] = treated blueberries, thermal fogging 10 mg active ingredient per kg, 24 days incubation
[9] = untreated blueberries placed adjacent to treated blueberries 6 days after treatment, 13 days incubation
[10] = untreated blueberries placed adjacent to treated blueberries 6 days after treatment, 16 days incubation
[11] = untreated blueberries placed adjacent to treated blueberries 6 days after treatment, 24 days incubation

For `OB1OCc2cc(F)ccc21` [5-fluoro-1-hydroxy-3H-2,1-benzoxaborole], the B. cinerea incidence (B. cinerea [1]; [6]) was 2.8%, the B. cinerea severity (B. cinerea [1]; [6]) was 1.1% and the B. cinerea incidence (B. cinerea [1]; [7]) was 2.8%. It also gave a B. cinerea severity (B. cinerea [1]; [7]) of 1.1%, a B. cinerea incidence (B. cinerea [1]; [8]) of 5.6% and a B. cinerea severity (B. cinerea [1]; [8]) of 3.3%. For the same molecule, the B. cinerea incidence (B. cinerea [1]; [9]) was 16.7%, the B. cinerea severity (B. cinerea [1]; [9]) was 4.7% and the B. cinerea incidence (B. cinerea [1]; [10]) was 23.0%. It also gave a B. cinerea severity (B. cinerea [1]; [10]) of 6.2%, a B. cinerea incidence (B. cinerea [1]; [11]) of 33.3% and a B. cinerea severity (B. cinerea [1]; [11]) of 15.0%. For the same molecule, the B. cinerea severity (B. cinerea [2]; treated strawberries, dipped 30 seconds in 10 ppm solution, 3 days incubation) was 0.0%, the B. cinerea severity (B. cinerea [2]; treated strawberries, dipped 30 seconds in 10 ppm solution, 5 days incubation) was 0.0% and the B. cinerea severity (B. cinerea [2]; untreated strawberries placed adjacent to treated strawberries, 3 days incubation) was 5.4%. For the same molecule, the B. cinerea severity (B. cinerea [2]; untreated strawberries placed adjacent to treated strawberries, 5 days incubation) was 43.8%, the “Green and Gray molds incidence” value [3] was 0.64% and the “Green and Blue mold incidence” value [4] was 4.1%. For the same molecule, the B. cinerea incidence ([5]; 4 days incubation) was 2.6%, the B. cinerea severity ([5]; 4 days incubation) was 0.2% and the B. cinerea incidence ([5]; 13 days incubation) was 19.2%. For the same molecule, the B. cinerea severity ([5]; 13 days incubation) was 10.6%.
